Measurements: publication PMC9569640, “Structural Insights into the Binding Propensity of Human SHIP2 SH2 to Oncogenic CagA Isoforms from Helicobacter pylori” (International Journal of Molecular Sciences, 2022)
Substitutions are numbered along the chain they refer to. Like-named read-outs stand apart in the source and are kept apart here. Square brackets hold non-standard residues; d marks the D form. Peptide text beside a SMILES is read from it. pY = N[C@@H](Cc1ccc(OP(=O)(O)O)cc1)C(=O)O

Columns and labels:
[1] = biological target: T1, SHIP2-SH2 (wild type) (Homo sapiens, UniProt O15357); test: Fluorescence polarization binding of FAM-labeled phosphopeptides to wild-type SHIP2-SH2; details: FP assay, N-terminally FAM-labeled phosphopeptide 100 nM, 20 mM Tris, 100 mM NaCl, 10 mM DTT, 0.02% NaN3, pH 7.5, each reaction repeated three times, averaged, ± standard error of curve fitting, read-out: dissociation constant (KD) for wild-type SHIP2-SH2
T1 construct: The SHIP2 SH2 domain (hereafter represented by SHIP2-SH2); made in house
T1 sequence (O15357 21-117 limits assumed): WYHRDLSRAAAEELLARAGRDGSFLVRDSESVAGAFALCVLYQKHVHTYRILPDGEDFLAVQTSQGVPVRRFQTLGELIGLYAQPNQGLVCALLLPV
Description: (§1) Expression and purification of wild-type SHIP2-SH2 and its mutants including R28A, S49A, E50A, S51A, R70A, S84A and Q107A were carried out using the previously described method, and circular dichroism (CD) spectra were collected to confirm no obvious secondary structure change of the mutants. The purified proteins were concentrated to a final concentration of 0.2 mM for NMR experiments in the NMR buffer containing 90% H2O/10% D2O (v/v), 20 mM Tris, 100 mM NaCl, 10 mM DTT and 0.02% NaN3 at pH 7.5. Peptides derived from the four types of EPIYA motifs were synthesized by GL Biochem Ltd. (Shanghai, China). Tyr-phosphorylated peptides included: 8-mer (E-P-I-pY-A-K-V-N) and 13-mer (E-N-E-P-I-pY-A-K-V-N-K-K-K) EPIYA-A; 8-mer (E-P-I-pY-A-Q-V-A) and 13-mer (P-E-E-P-I-pY-A-Q-V-A-K-K-V) EPIYA-B; and 8-mer EPIYA-CD (E-P-I-pY-A-T-I-D), 13-mer EPIYA-C (S-P-E-P-I-pY-A-T-I-D-D-L-G) and 13-mer EPIYA-D (S-P-E-P-I-pY-A-T-I-D-F-D-E). The purities of the peptides were determined to be above 98% by high performance liquid chromatography (HPLC) and the molecular weights were confirmed by electrospray ionization mass spectrometry (ESI-MS).
(§2) The used phosphopeptides for different versions of CagA EPIYA A/B/C/D motifs were labeled with FAM at the N-terminal end and dissolved in a buffer containing 20 mM Tris, 100 mM NaCl, 10 mM DTT and 0.02% NaN3, at pH 7.5. The peptide concentration was kept at 100 nM, while wild-type SHIP2-SH2 and its mutants were serially diluted with the concentrations ranging from micromolar to nanomolar, and then mixed with the peptide, respectively. FP values of FAM-labeled peptides bound by SHIP2-SH2 were measured using a SpectraMax i3x multi-mode plate reader (Molecular Devices) by recording the excitation at 485 nm and emission at 528 nm. Each binding reaction was repeated three times, and the polarization values were averaged (given in units of mP). The averaged polarization value of each titration point was subtracted from that of the free peptide to obtain the final value. The dissociation constants (KD) were calculated using the final polarization value of each titration point as previously described.

[2] = biological target: T2, SHIP2-SH2 R70A (Homo sapiens, UniProt O15357, R70A); test: Fluorescence polarization binding, SHIP2-SH2 mutant R70A; details: FP assay; FAM-labeled 13-mer phosphopeptide 100 nM; pH 7.5; n = 3 averaged; ± standard error of fitting; SEM; read-out: dissociation constant (KD) for SHIP2-SH2 R70A
T2 construct: The SHIP2 SH2 domain (hereafter represented by SHIP2-SH2); made in house
T2 sequence (O15357 21-117 R70A limits assumed): T1 sequence (O15357 21-117 limits assumed) with R50A
Description: as §1, §2

[3] = biological target: T3, SHIP2-SH2 S84A (Homo sapiens, UniProt O15357, S84A); test: Fluorescence polarization binding, SHIP2-SH2 mutant S84A; details: FP assay; FAM-labeled 13-mer phosphopeptide 100 nM; pH 7.5; n = 3 averaged; ± standard error of fitting; SEM; read-out: dissociation constant (KD) for SHIP2-SH2 S84A
T3 construct: The SHIP2 SH2 domain (hereafter represented by SHIP2-SH2); made in house
T3 sequence (O15357 21-117 S84A limits assumed): T1 sequence (O15357 21-117 limits assumed) with S64A
Description: as §1, §2

[4] = biological target: T4, SHIP2-SH2 S51A (Homo sapiens, UniProt O15357, S51A); test: Fluorescence polarization binding, SHIP2-SH2 mutant S51A; details: FP assay; FAM-labeled 13-mer phosphopeptide 100 nM; pH 7.5; n = 3 averaged; ± standard error of fitting; SEM; read-out: dissociation constant (KD) for SHIP2-SH2 S51A
T4 construct: The SHIP2 SH2 domain (hereafter represented by SHIP2-SH2); made in house
T4 sequence (O15357 21-117 S51A limits assumed): T1 sequence (O15357 21-117 limits assumed) with S31A
Description: as §1, §2

[5] = biological target: T5, SHIP2-SH2 E50A (Homo sapiens, UniProt O15357, E50A); test: Fluorescence polarization binding, SHIP2-SH2 mutant E50A; details: FP assay; FAM-labeled 13-mer phosphopeptide 100 nM; pH 7.5; n = 3 averaged; ± standard error of fitting; SEM; read-out: dissociation constant (KD) for SHIP2-SH2 E50A
T5 construct: The SHIP2 SH2 domain (hereafter represented by SHIP2-SH2); made in house
T5 sequence (O15357 21-117 E50A limits assumed): T1 sequence (O15357 21-117 limits assumed) with E30A
Description: as §1, §2

[6] = biological target: T6, SHIP2-SH2 Q107A (Homo sapiens, UniProt O15357, Q107A); test: Fluorescence polarization binding, SHIP2-SH2 mutant Q107A; details: FP assay; FAM-labeled 13-mer phosphopeptide 100 nM; pH 7.5; n = 3 averaged; ± standard error of fitting; SEM; read-out: dissociation constant (KD) for SHIP2-SH2 Q107A
T6 construct: The SHIP2 SH2 domain (hereafter represented by SHIP2-SH2); made in house
T6 sequence (O15357 21-117 Q107A limits assumed): T1 sequence (O15357 21-117 limits assumed) with Q87A
Description: as §1, §2

[7] = biological target: T7, SHIP2-SH2 R28A (Homo sapiens, UniProt O15357, R28A); test: Fluorescence polarization binding, SHIP2-SH2 mutant R28A; details: FP assay; FAM-labeled 13-mer phosphopeptide 100 nM; pH 7.5; n = 3 averaged; ± standard error of fitting; SEM; read-out: dissociation constant (KD) for SHIP2-SH2 R28A
T7 construct: The SHIP2 SH2 domain (hereafter represented by SHIP2-SH2); made in house
T7 sequence (O15357 21-117 R28A limits assumed): T1 sequence (O15357 21-117 limits assumed) with R8A
Description: as §1, §2

[8] = biological target: T8, SHIP2-SH2 S49A (Homo sapiens, UniProt O15357, S49A); test: Fluorescence polarization binding, SHIP2-SH2 mutant S49A; details: FP assay; FAM-labeled 13-mer phosphopeptide 100 nM; pH 7.5; n = 3 averaged; ± standard error of fitting; SEM; read-out: dissociation constant (KD) for SHIP2-SH2 S49A
T8 construct: The SHIP2 SH2 domain (hereafter represented by SHIP2-SH2); made in house
T8 sequence (O15357 21-117 S49A limits assumed): T1 sequence (O15357 21-117 limits assumed) with S29A
Description: as §1, §2

[9] = biological target: SHIP2-SH2; details: 6-mer phosphopeptides (-2 to +3), both with Leu at pY+3; cited from earlier work
Text: When the natural phosphopeptides interacting with SHIP2-SH2 were ranked according to their affinities to SHIP2-SH2, it was seen that the affinity was related to the residue type at the pY+3 position (Figure 6F). The ligands showing high and moderate affinities have Leu (L) or Ile (I) residues at this site, while ligands with a low affinity have Val (V) at this site. These indicate that SHIP2-SH2 may have a preference for the hydrophobic side chain of the residue at the pY+3 site of its Tyr-phosphorylated ligand.

[10] = biological target: T1, SHIP2-SH2 (wild type); details: summary Figure 6F, value from the authors' earlier NMR/FP study, cited from earlier work
Text: Figure 6 The binding interface and affinity of SHIP2-SH2 for different native ligands. The binding interface of SHIP2-SH2 for FcgR2B ITIM (A), CagA EPIYA-C/D (B), c-MET C-terminus (C), CagA EPIYA-A/B (D) is colored in blue. The additional interface of SHIP2-SH2 for 13-mer FcgR2B ITIM compared to 8-mer FcgR2B ITIM is colored in green. The interface was drawn according to the residues of SHIP2-SH2 showing a CSP greater than 0.2 ppm in NMR titration experiments with respective ligand. (E) The summarized three regions of SHIP2-SH2 which are differently engaged for binding different ligands are hig ...

Compound	Kd ([1]; SEM) [µM]	Kd [2] [µM]	Kd [3] [µM]	Kd [4] [µM]	Kd [5] [µM]	Kd [6] [µM]	Kd [7] [µM]	Kd [8] [µM]	further results
CC[C@H](C)[C@H](NC(=O)[C@@H](NC(=O)[C@H](C)NC(=O)[C@H](Cc1ccc(OP(=O)(O)O)cc1)NC(=O)[C@@H](NC(=O)[C@@H]1CCCN1C(=O)[C@H](CCC(=O)O)NC(=O)[C@@H]1CCCN1C(=O)[C@@H](N)CO)[C@@H](C)CC)[C@@H](C)O)C(=O)N[C@@H](CC(=O)O)C(=O)N[C@@H](CC(=O)O)C(=O)N[C@@H](CC(C)C)C(=O)NCC(=O)O [EPIYA-C] (H-SPEPI[pY]ATIDDLG-OH)	2.96 ± 0.14	119 ± 4.93	2.79 ± 0.18	22.4 ± 2.88	0.96 ± 0.14	2.78 ± 0.14	12.9 ± 1.38	77.5 ± 3.12	–
GGpYMTL [FcgR2A ITAM, 6-mer FcgR2A ITAM phosphopeptide (−2 to +3) of a previous SPR study]	–	–	–	–	–	–	–	–	KD for SHIP2-SH2 by SPR (comparison in words) [9]: comparable KD values
CC[C@H](C)[C@H](NC(=O)[C@@H](NC(=O)[C@H](C)NC(=O)[C@H](Cc1ccc(OP(=O)(O)O)cc1)NC(=O)[C@@H](NC(=O)[C@@H]1CCCN1C(=O)[C@@H](N)CCC(=O)O)[C@@H](C)CC)[C@@H](C)O)C(=O)N[C@@H](CC(=O)O)C(=O)O [8-mer EPIYA-CD] (H-EPI[pY]ATID-OH)	–	–	–	–	–	–	–	–	Kd [1]: 4.45 µM
ITpYSLL [6-mer FcgR2B ITIM, 6-mer FcgR2B ITIM phosphopeptide (-2 to +3) of a previous SPR study]	–	–	–	–	–	–	–	–	KD for SHIP2-SH2 by SPR (comparison in words) [9]: comparable KD values
CC[C@H](C)[C@H](NC(=O)[C@@H]1CCCN1C(=O)[C@H](CCC(=O)O)NC(=O)[C@H](CC(N)=O)NC(=O)[C@@H](N)CCC(=O)O)C(=O)N[C@@H](Cc1ccc(OP(=O)(O)O)cc1)C(=O)N[C@@H](C)C(=O)N[C@@H](CCCCN)C(=O)N[C@H](C(=O)N[C@@H](CC(N)=O)C(=O)N[C@@H](CCCCN)C(=O)N[C@@H](CCCCN)C(=O)N[C@@H](CCCCN)C(=O)O)C(C)C [EPIYA-A] (H-ENEPI[pY]AKVNKKK-OH)	23.4 ± 1.03	539 ± 24.2	16.4 ± 0.47	180 ± 37.4	8.28 ± 0.67	25.5 ± 1.5	133 ± 6.95	419 ± 18.6	–
c-MET: Y1356-phosphorylated c-MET C-terminus peptide from the authors' previous study (NATYVNVK; not fully specified; phospho-Tyr1356)	–	–	–	–	–	–	–	–	Kd ([10]; read-out: Binding Affinities KD for SHIP2-SH2 (c-MET phosphopeptide)): 7.43 µM
CC[C@H](C)[C@H](NC(=O)[C@@H](NC(=O)[C@H](C)NC(=O)[C@H](Cc1ccc(OP(=O)(O)O)cc1)NC(=O)[C@@H](NC(=O)[C@@H]1CCCN1C(=O)[C@H](CCC(=O)O)NC(=O)[C@@H]1CCCN1C(=O)[C@@H](N)CO)[C@@H](C)CC)[C@@H](C)O)C(=O)N[C@@H](CC(=O)O)C(=O)N[C@@H](Cc1ccccc1)C(=O)N[C@@H](CC(=O)O)C(=O)N[C@@H](CCC(=O)O)C(=O)O [EPIYA-D]	3.16 ± 0.13	116 ± 6.61	2.69 ± 0.19	24.6 ± 2.23	1.14 ± 0.16	3.46 ± 0.2	15.5 ± 2.77	76.8 ± 5.16	–
CC[C@H](C)[C@H](NC(=O)[C@@H]1CCCN1C(=O)[C@H](CCC(=O)O)NC(=O)[C@H](CCC(=O)O)NC(=O)[C@@H]1CCCN1)C(=O)N[C@@H](Cc1ccc(OP(=O)(O)O)cc1)C(=O)N[C@@H](C)C(=O)N[C@@H](CCC(N)=O)C(=O)N[C@H](C(=O)N[C@@H](C)C(=O)N[C@@H](CCCCN)C(=O)N[C@@H](CCCCN)C(=O)N[C@H](C(=O)O)C(C)C)C(C)C [EPIYA-B] (H-PEEPI[pY]AQVAKKV-OH)	18.6 ± 1.25	532 ± 47.5	17.9 ± 0.95	171 ± 36	6.6 ± 0.6	21.4 ± 1.33	143 ± 17.4	303 ± 16.2	–
FcgR2B: Tyr-phosphorylated FcgR2B-ITIM peptide from the authors' previous study (ENTITYSLLMHPD; not fully specified; phospho-Tyr292 (ITIM tyrosine); an 8-mer form (289-296, pY-3 to pY+4) was also used in the cited study)	–	–	–	–	–	–	–	–	Kd ([10]; read-out: Binding Affinities KD for SHIP2-SH2 (FcgR2B ITIM phosphopeptide)): 0.4 µM
